According to ChEMBL document CHEMBL2311518 (J Med Chem, 2013):
Where “and” joins values, the source holds several entries; their conditions need not be identical. Identical values can stand only once. Calls of active or inactive are those of the source. The calls are words filed in the database; no cut-off is given here.

Experiments:
[1] = molecular target: T1, Neuronal acetylcholine receptor; alpha3/beta4 (Rattus norvegicus, UniProt P04757+P12392)
Description: Agonist activity at rat alpha3beta4 nAChR expressed in HEK293 cells after 30 mins by FLIPR membrane potential blue assay

[2] = molecular target: T2, Neuronal acetylcholine receptor; alpha4/beta2 (Homo sapiens, UniProt P17787+P43681)
T2 sequence (P17787 whole entry): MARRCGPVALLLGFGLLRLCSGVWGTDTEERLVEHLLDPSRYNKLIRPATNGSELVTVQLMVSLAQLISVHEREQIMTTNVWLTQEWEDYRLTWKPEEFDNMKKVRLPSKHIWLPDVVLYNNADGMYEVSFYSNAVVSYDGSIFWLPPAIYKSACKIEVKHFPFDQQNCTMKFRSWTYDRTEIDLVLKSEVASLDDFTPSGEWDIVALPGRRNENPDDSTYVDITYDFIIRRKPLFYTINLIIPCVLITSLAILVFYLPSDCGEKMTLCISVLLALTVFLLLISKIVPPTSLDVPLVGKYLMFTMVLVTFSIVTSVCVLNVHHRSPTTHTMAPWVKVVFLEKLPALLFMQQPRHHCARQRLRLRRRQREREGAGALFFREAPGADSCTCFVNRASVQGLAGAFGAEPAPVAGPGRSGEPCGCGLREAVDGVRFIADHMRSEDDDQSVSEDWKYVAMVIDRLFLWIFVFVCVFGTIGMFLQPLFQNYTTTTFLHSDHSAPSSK
T2 sequence (P43681 whole entry): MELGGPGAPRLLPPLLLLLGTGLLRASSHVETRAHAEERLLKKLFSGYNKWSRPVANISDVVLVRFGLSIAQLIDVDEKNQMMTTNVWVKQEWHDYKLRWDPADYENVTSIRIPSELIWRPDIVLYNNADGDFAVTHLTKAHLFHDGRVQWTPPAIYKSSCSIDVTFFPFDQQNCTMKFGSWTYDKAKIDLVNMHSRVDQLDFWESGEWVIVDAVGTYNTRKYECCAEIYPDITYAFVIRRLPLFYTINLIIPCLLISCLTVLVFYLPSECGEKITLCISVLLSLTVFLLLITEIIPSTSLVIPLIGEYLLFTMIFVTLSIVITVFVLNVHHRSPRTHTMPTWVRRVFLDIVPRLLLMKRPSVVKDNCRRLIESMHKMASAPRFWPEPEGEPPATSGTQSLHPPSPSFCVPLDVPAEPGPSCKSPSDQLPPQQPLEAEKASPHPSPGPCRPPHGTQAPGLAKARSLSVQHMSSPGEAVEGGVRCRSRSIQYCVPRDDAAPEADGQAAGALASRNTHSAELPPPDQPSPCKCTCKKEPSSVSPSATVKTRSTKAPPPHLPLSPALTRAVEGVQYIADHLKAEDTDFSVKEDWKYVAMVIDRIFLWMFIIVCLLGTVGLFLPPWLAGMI
Description: Agonist activity at human 3:2 alpha4beta2 nAChR expressed in Xenopus laevis oocytes after 1 min by two electrode voltage clamp technique

[3] = molecular target: T2, Neuronal acetylcholine receptor; alpha4/beta2; remark: listed apart in the source
Description: Partial agonist activity at human 2:3 alpha4beta2 nAChR expressed in Xenopus laevis oocytes after 1 min by two electrode voltage clamp technique

[4] = molecular target: Neuronal acetylcholine receptor subunit alpha-7 (Rattus norvegicus, UniProt Q05941); conditions: tsa-201
Sequence of Neuronal acetylcholine receptor subunit alpha-7 (Q05941 23-502 limits assumed): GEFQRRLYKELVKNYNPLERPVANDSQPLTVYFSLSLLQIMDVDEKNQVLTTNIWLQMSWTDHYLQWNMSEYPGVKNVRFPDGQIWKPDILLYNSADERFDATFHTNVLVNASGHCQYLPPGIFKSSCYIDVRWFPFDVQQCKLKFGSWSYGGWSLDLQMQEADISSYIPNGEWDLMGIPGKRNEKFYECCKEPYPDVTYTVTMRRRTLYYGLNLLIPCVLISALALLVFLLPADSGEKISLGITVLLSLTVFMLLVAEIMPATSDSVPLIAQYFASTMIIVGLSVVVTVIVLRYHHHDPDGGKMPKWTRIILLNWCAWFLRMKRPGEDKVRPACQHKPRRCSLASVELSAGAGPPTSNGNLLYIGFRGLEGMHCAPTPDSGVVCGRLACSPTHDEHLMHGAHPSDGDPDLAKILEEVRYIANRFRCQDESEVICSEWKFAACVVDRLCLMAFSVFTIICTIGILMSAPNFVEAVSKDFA
Description: Displacement of [3H]MLA from rat nAChR alpha7 linked to ion channel portion of 5-HT3A receptor expressed in human tsA-201 cells after 2.5 hrs by scintillation counting analysis

[5] = molecular target: Acetylcholine-binding protein (Lymnaea stagnalis, UniProt P58154); conditions: hek293
Sequence of Acetylcholine-binding protein (P58154 20-229 limits assumed): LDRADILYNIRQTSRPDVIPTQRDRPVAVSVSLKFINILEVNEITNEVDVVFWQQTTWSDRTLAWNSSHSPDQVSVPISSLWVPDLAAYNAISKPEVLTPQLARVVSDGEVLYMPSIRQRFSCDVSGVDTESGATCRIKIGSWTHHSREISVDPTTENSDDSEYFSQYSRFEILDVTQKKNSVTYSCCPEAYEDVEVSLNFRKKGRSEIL
Description: Displacement of [3H]epibatidine from Lymnaea stagnalis AChBP linked to ion channel portion of 5-HT3A receptor expressed in HEK293 cells after 4 hrs by scintillation counting analysis

[6] = molecular target: Neuronal acetylcholine receptor; alpha4/beta4 (Rattus norvegicus, UniProt P09483+P12392); assay: biochemical
Sequence of Neuronal acetylcholine receptor; alpha4/beta4 (P09483 whole entry): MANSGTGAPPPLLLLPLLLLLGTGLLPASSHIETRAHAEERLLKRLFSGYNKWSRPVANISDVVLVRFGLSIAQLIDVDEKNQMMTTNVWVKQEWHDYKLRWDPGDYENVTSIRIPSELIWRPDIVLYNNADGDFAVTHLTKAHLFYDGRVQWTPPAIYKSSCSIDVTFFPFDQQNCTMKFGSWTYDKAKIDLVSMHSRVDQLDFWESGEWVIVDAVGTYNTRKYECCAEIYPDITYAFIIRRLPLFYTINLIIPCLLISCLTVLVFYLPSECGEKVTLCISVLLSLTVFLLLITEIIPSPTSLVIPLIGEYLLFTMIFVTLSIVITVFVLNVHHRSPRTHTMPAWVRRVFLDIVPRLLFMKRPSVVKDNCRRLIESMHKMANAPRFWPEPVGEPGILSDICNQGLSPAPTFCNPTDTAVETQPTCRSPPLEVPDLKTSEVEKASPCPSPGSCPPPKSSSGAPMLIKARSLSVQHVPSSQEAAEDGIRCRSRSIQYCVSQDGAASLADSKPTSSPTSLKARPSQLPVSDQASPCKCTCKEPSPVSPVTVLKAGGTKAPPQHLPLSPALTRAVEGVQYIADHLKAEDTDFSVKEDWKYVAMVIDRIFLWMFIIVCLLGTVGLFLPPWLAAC
Sequence of Neuronal acetylcholine receptor; alpha4/beta4 (P12392 whole entry): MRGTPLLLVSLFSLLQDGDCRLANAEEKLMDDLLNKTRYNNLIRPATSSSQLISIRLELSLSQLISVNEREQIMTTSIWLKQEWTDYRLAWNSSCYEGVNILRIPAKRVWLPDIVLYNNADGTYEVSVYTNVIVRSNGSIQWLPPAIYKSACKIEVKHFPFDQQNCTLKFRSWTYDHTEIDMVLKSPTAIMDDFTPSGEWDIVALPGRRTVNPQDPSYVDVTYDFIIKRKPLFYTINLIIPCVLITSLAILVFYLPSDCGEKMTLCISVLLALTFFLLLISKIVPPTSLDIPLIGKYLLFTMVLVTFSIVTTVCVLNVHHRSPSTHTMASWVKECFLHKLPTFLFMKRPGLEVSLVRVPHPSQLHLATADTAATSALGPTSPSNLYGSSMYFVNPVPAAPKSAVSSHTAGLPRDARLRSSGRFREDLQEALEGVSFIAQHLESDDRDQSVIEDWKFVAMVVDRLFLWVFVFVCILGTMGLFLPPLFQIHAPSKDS
Description: Displacement of [3H]epibatidine from rat recombinant alpha4beta4 nAChR expressed in HEK293 cells after 4 hrs by scintillation counting analysis

[7] = molecular target: T1, Neuronal acetylcholine receptor; alpha3/beta4; assay: biochemical
Description: Displacement of [3H]epibatidine from rat recombinant alpha3beta4 nAChR expressed in HEK293 cells after 4 hrs by scintillation counting analysis

[8] = molecular target: Neuronal acetylcholine receptor; alpha4/beta2 (Rattus norvegicus, UniProt P09483+P12390); assay: biochemical
Sequence of Neuronal acetylcholine receptor; alpha4/beta2 (Rattus norvegicus, UniProt P09483+P12390) (P09483 whole entry): as the sequence (P09483 whole entry) above
Sequence of Neuronal acetylcholine receptor; alpha4/beta2 (Rattus norvegicus, UniProt P09483+P12390) (P12390 whole entry): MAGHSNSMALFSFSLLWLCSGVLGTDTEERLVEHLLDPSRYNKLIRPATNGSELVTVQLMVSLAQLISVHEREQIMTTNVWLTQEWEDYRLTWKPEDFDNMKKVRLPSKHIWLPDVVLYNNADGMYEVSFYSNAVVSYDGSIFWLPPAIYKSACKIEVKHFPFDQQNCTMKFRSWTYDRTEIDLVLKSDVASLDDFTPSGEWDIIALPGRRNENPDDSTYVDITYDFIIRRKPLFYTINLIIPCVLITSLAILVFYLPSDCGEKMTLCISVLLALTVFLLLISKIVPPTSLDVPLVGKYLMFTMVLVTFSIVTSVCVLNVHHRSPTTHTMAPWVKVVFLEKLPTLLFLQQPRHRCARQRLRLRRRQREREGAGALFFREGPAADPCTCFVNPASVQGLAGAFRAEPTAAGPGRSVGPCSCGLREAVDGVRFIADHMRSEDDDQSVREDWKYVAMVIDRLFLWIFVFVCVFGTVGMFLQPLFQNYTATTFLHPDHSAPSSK
Description: Displacement of [3H]epibatidine from rat recombinant alpha4beta2 nAChR expressed in HEK293 cells after 4 hrs by scintillation counting analysis

[9] = molecular target: Neuronal acetylcholine receptor; alpha3/beta4 (Rattus norvegicus) (UniProt P04757+P12392); assay: Modulation of rat alpha3beta4 nAChR expressed in HEK293 cells up to 1000 uM after 30 mins by FLIPR membrane potential blue assay; format: cell-based

T1 sequence (P04757 whole entry): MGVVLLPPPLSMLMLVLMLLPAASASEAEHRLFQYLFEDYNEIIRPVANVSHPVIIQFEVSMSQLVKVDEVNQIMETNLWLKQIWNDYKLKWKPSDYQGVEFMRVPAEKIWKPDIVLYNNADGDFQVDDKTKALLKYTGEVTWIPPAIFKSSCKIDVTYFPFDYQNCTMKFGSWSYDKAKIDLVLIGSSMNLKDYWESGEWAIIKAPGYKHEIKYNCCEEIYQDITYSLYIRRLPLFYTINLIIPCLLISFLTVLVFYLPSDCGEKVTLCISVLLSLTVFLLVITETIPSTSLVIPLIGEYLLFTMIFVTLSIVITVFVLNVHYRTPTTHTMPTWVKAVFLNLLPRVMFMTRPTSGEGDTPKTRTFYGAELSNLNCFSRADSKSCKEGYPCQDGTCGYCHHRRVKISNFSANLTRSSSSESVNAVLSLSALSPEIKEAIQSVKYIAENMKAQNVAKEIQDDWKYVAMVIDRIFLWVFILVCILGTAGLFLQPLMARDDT
T1 sequence (P12392 whole entry): as the sequence (P12392 whole entry) above

SMILES | EC50 [1] [µM] | EC50 [2] | EC50 [3] [µM] | Ki [4] [µM] | pKi [4] | Ki [5] [µM] | pKi [5] | Ki [6] [µM] | Ki [7] [µM] | Ki [8] [µM] | Activity [9]
C[C@H](CCOC(=O)N(C)C)N(C)C | 11 | 15.8 µM and 14 µM | 0.72 | > 1000 | < 3 | 0.079 | 7.1 | 0.15 | 0.42 | 0.02 | –
C[C@H](CCOn1cccn1)N(C)C | – | – | – | – | – | – | – | 11 | 8.1 | 0.018 | –
Cc1cn(C)c(OCC[C@@H](C)N(C)C)n1 | – | 34 µM | 19 | > 1000 | < 3 | 1.5 | 5.82 | 50 | 24 | 0.28 | inactive
C[C@H](CCOc1nc(Br)cn1C)N(C)C | – | – | – | 1000 | 3 | – | – | 50 | 300 | 0.12 | –
C[C@H](CCOc1cccnc1)N(C)C | – | – | – | – | – | – | – | 8.3 | 4.9 | 0.03 | –
C[C@H](CCOc1nccs1)N(C)C | – | – | – | – | – | – | – | 1.8 | 4.7 | 0.013 | –
C[C@H](CCOc1cnccn1)N(C)C | – | – | – | – | – | – | – | 8.3 | 42 | 0.24 | –
